This is an account of results in patent US5084464A, “Conjugated γ-hydroxybutenolide compounds and antiulcer agents containing the same as an effective ingredient” (Kuraray Company Ltd., priority 1989, dated 1992).

Series [1] relates to HCl-ethanol-induced ulcers generated at the mucosa of the stomach. Briefly: Antiulcer Activity (HCl-Ethanol Ulcer). It is filed as in vivo. Particulars: oral, one hour before HCl-ethanol, rats. On the procedure:
Antiulcer Activity (HCl-Ethanol Ulcer)
1.5 ml of a 60% aqueous ethanol solution containing 150 mM hydrochloric acid was orally administered to rats. One hour thereafter the rats were sacrificed and the length (mm) of HCl-ethanol-induced ulcers generated at the mucosa of the stomach were measured. Sum of the length of ulcer per animal is defined as ulcer coefficient. Specimens each was orally administered one hour before the HCl-ethanol administration. Inhibition rate was calculated as the ratio of the difference of ulcer coefficients of the control group and specimen-administered group to the ulcer coefficient of the control group.

A short description of series [2]: Acute Toxicity (oral administration). Particulars: mouse, in vivo. The protocol: Acute toxicity tests through oral administration were carried out using male ICR-strain mice (5 weeks old).
[3] abbreviates: Rattus norvegicus, 1 h, read-out: Inhibition Rate.

Structures are written as SMILES.

On to `CN(C)c1ccc(/C=C/C2=CC(=O)OC2O)cc1` (stereo not shown) [(2)], for which, in series [1] (setting [3]), the inhibition in vivo at 2.5 mg/kg came out at 37.5%.
For the molecule `O=C1C=C(/C=C/c2cccc(C(=O)c3ccccc3)c2)C(O)O1` (stereo not shown) [(3)], the inhibition in vivo at 5 mg/kg in series [1] (setting [3]) was 69.7%.
On to `O=C1C=C(/C=C/c2cccc(Cc3cccnc3)c2)C(O)O1` (stereo not shown) [(4)], for which, in series [1] (setting [3]), the inhibition in vivo at 5 mg/kg was found to be 42%.
For `O=C1C=C(/C=C/c2cccc3ccccc23)C(O)O1` (stereo not shown) [(5)], the inhibition in vivo at 2.5 mg/kg in series [1] (setting [3]) is 94%.
For `COc1ccc2cc(/C=C/C3=CC(=O)OC3O)ccc2c1` (stereo not shown) [(6)], the inhibition in vivo at 5 mg/kg in series [1] (setting [3]) was found to be 61.3%.
`O=C1C=C(/C=C/c2ccco2)C(O)O1` (stereo not shown) [(7)]: in series [1] (setting [3]), the inhibition in vivo at 2.5 mg/kg was found to be 96%.
The same measure, in the same setting: for `O=C1C=C(/C=C/c2cccs2)C(O)O1` (stereo not shown) [(8)] the value was 95.5%.
Turning to `O=C1C=C(/C=C/C=C/c2ccccc2)C(O)O1` (stereo not shown) [(9)], in series [1] (setting [3]), the inhibition in vivo at 5 mg/kg came to 98.6%.
As for `O=C1C=C(/C=C/C=C/C=C/c2ccccc2)C(O)O1` (stereo not shown) [(10)], the inhibition in vivo at 5 mg/kg in series [1] (setting [3]) was 61.8%.
Consider `CC(C)=C/C=C/C1=CC(=O)OC1O` (stereo not shown) [Compound (1), 5-hydroxy-4-[4-methyl-1,3-pentadienyl]-2(5H)-furanone], for which the median lethal dose (LD50) (in general, the dose at which mortality reaches 50%) in series [2] is no less than 2000 mg/kg. For the same molecule, the inhibition in vivo at 5 mg/kg in series [1] (setting [3]) stood at 90.6%.
In the case of `CC(=O)c1ccc2c(c1)C(=O)C1(CC1)O2` [Spizofurone, reference compound], in series [1] (100 mg/kg), the “Inhibition Rate” value came to 86.6%.
With `CC(=O)CCC=C(C)CCC=C(C)CCC=C(C)CCC=C(C)C` [Teprenone, reference compound], the inhibition in vivo at 25 mg/kg in series [1] (Rattus norvegicus, 1 h, 25 mg/kg, read-out: Inhibition Rate) was 48.9%.
